These results are taken from publication PMC5321741, “Arylmethylamino steroids as antiparasitic agents” (Nature Communications, 2017).

Like-named read-outs stand apart in the source and are kept apart here.

The test system of one data set is haem. The data set can be described thus: ESI-MS collision-induced dissociation of haem adducts. The settings on record: 50 µM haem and 50 µM substrate; for DV50 (dissociation voltage at 50%) of haem adduct: ESI-CID, 20 V to 400 V; for Bottom plateau (adduct remaining at 400 V): fragmentor voltage 400 V. Type of data set: binding. On the procedure: Compound Molar Adduct DV50 Bottom Dissociation mass [Haem+S] (V) plateau Constant
Supplementary Table 7. ESI-MS-CID data (m/z, calculated DV50 = dissociation voltage at 50% and % bottom plateau) of the [haematin-drug]+ adducts and dissociation constants (KD, µM) of the haematin-drug complexes measured with absorption spectrophotometric titrations.
Conditions: 50 µM haem and 50 µM substrate in H2O/CH3CN (5/95) + 0.1% formic acid.
Stability responses of the haem substrate adduct were obtained via ESI-CID experiments.
Positive mode; fragmentor voltage from 20 V to 400 V with 20 V increments. […]
- 41/120 g), and complete dissolution was achieved using an ultrasonic bath. All solutions were protected from daylight to avoid any photochemical degradation. All the physiochemical measurements were carried out at 25.0(2) °C. […]
Electrospray mass spectrometric measurements stopping point
Electrospray mass spectra of the haem complexes were obtained with an Agilent Technologies 6120 quadrupole equipped with an electrospray (ESI) interface. For

Data set [1] has as its system P. falciparum (strain 3D7). The data set can be described thus: 72 h 3H-hypoxanthine incorporation assay, asexual blood stages. The class given is cell-based, Plasmodium falciparum. The following applies: Plasmodium falciparum.
A further data set relates to K-562. The data set can be described thus: antiproliferative activity on K-562 cells. The settings on record: Homo sapiens, K562, 72 h. Type of data set: cell-based. How it is done: (§1) Compounds were tested for their antiproliferative activity on HUVEC and K-562 cells and for cytotoxicity on HeLa cells using standard protocols. K-562 (DSM ACC 10), HUVEC (ATCC CRL-1730), and HeLa (DSM ACC 57) cells were cultured as described previously. To assay the antiproliferative and cytotoxic effect, procedures were carried out as described before. In brief, for each experiment with K-562 and HeLa ∼10,000 cells were seeded per well of the 96-well microplates. For the cytotoxicity assay, the HeLa cells were preincubated for 48 h without the test substances. Cells were incubated for 72 h at 37 °C in a humidified atmosphere and 5% CO2. Suspension cultures of K-562 in microplates were analysed by an electronic cell analyzer system CASY 1 (SCHÄRFE, Reutlingen, Germany). The monolayer of the HUVEC and HeLa cells were fixed by glutaraldehyde (MERCK) and stained with a 0.05% solution of methylene blue (SERVA). After gently washing, the stain was eluted by 0.2 ml of 0.33 N HCl in the wells. The optical densities were measured at 660 nm in a microplate reader. The calculations of the different values of GI50 and CC50 were performed with the software Magellan (TECAN).

A short description of data set [2]: cytotoxicity on HeLa cells. The settings on record: human, HeLa cells. Type of data set: cell-based. On the procedure: as §1
For another data set, the system named is HUVEC. The data set can be described thus: antiproliferative activity on HUVEC cells. Type of data set: cell-based. The following applies: Homo sapiens, HUVEC, 72 h. How it is done:
as §1

Setting [3] is: 3D7, 72 h 3H-hypoxanthine incorporation, asexual blood stages, read-out: Antiplasmodial activity IC50 Pf (3D7).
Where [4] appears, read: 3D7, non-steroid-derived analogs, read-out: IC50 on P. falciparum 3D7 asexual blood stages.

The IC50 is the concentration that gives 50% inhibition. As usually defined, the GI50 is the concentration at which growth is held to half of that of the control. For orientation: CC50 means the concentration giving 50% cytotoxicity. Read a low CC50 as harm at low concentration.

As for `COc1ccc2c(c1)CCC1C2CC[C@@]2(C)C1CC[C@H]2N` (stereo partly shown) [1a], in the data set with haem, the “DV50 (dissociation voltage at 50%) of haem adduct” value (“DV50 (dissociation voltage at 50%)” below) stood at 218 V and the “Bottom plateau (adduct remaining at 400 V)” value turned out to be 1.2%. Further, in data set [1] (setting [3]), the half-maximal inhibitory concentration (IC50) is > 1000 nM.
As to `COc1ccc2c(c1)CCC1C2CC[C@@]2(C)C1CC[C@H]2/N=C/c1ccccc1O` (stereo partly shown) [1b], the half-inhibitory concentration (IC50) in data set [1] (setting [3]) was > 2500 nM.
For `COc1ccc2c(c1)CCC1C2CCC2(C)C(NCc3cccc(O)c3)CCC12` (stereo not shown) [1e], the IC50 in data set [1] (setting [3]) is 434 nM.
Take `COc1ccc2c(c1)CCC1C2CCC2(C)C(NCc3ccc(O)cc3)CCC12` (stereo not shown) [1g]: in data set [1] (setting [3]), the half-inhibitory concentration (IC50) was found to be 116 nM.
Take `COc1ccc2c(c1)CCC1C2CCC2(C)C(NCc3ccccc3OC)CCC12` (stereo not shown) [1i]: in data set [1] (setting [3]), the concentration for half-maximal inhibition (IC50) came to 872 nM.
With `COc1ccc(CNC2CCC3C4CCc5cc(OC)ccc5C4CCC23C)cc1` (stereo not shown) [1k], in data set [1] (setting [3]), the IC50 is 1010 nM.
For `COc1ccc2c(c1)CCC1C2CC[C@@]2(C)C1CC[C@H]2NCc1cc(Cl)ccc1O` (stereo partly shown) [1s], the IC50 in data set [1] (setting [3]) is 11 nM.
Take `COc1ccc2c(c1)CCC1C2CC[C@@]2(C)C1CC[C@@H]2N` (stereo partly shown) [2a]: in the data set with haem, the “DV50 (dissociation voltage at 50%)” value was 210 V and the “Bottom plateau (adduct remaining at 400 V)” value was 1.8%. Besides, the IC50 in data set [1] (setting [3]) was > 1000 nM.
Take `COc1ccc2c(c1)CCC1C2CC[C@@]2(C)C1CC[C@@H]2/N=C/c1ccccc1O` (stereo partly shown) [2b]: the half-inhibitory concentration (IC50) in data set [1] (setting [3]) is > 2500 nM.
For `COc1ccc2c(c1)CCC1C2CC[C@@]2(C)C1CC[C@@H]2NCc1cccc(O)c1` (stereo partly shown) [2e], the IC50 in data set [1] (setting [3]) stood at 741 nM.
For `COc1ccc2c(c1)CCC1C2CC[C@@]2(C)C1CC[C@@H]2NCc1c(O)ccc2ccccc12` (stereo partly shown) [2m], the IC50 in data set [1] (setting [3]) was 183 nM.
Turning to `COc1ccc2c(c1)CCC1C2CC[C@@]2(C)C1CC[C@@H]2/N=C/c1cc2ccccc2cc1O` (stereo partly shown) [2n], the IC50 in data set [1] (setting [3]) is 5540 nM.
Turning to `CCN(CC)c1ccc(/C=N/[C@H]2CCC3C4CCc5cc(OC)ccc5C4CC[C@@]32C)c(O)c1` (stereo partly shown) [2p], the IC50 in data set [1] (setting [3]) was > 5000 nM.
For `CCN(CC)c1ccc(CN[C@H]2CCC3C4CCc5cc(OC)ccc5C4CC[C@@]32C)c(O)c1` (stereo partly shown) [2q], in data set [1] (setting [3]), the IC50 came to 713 nM.
For `COc1ccc2c(c1)CCC1C2CC[C@@]2(C)C1CC[C@@H]2NCc1cc(Cl)ccc1O` (stereo partly shown) [2s], the concentration for half-maximal inhibition (IC50) in data set [1] (setting [3]) came to 62 nM.
In the case of `COc1ccc2c(c1)CCC1C2CC[C@@]2(C)C1CC[C@@H]2NCc1cc([N+](=O)[O-])ccc1O` (stereo partly shown) [2u], in data set [1] (setting [3]), the IC50 was determined as 114 nM.
Regarding `COc1ccc2c(c1)CCC1C2CC[C@]2(C)C[C@H](N)CC12` (stereo partly shown) [3a], the IC50 in data set [1] (setting [3]) was > 1000 nM.
For `COc1ccc2c(c1)CCC1C2CC[C@]2(C)C[C@H](NCc3ccccc3O)CC12` (stereo partly shown) [3c], the figures for the GI50 with K-562 and in the data set on HUVEC were 3800 nM and 4100 nM, respectively. The compound also displayed a CC50 at 72 h in data set [2] of 20700 nM. Also, the IC50 in data set [1] (setting [3]) amounted to 42 nM.
As for `COc1ccc2c(c1)CCC1C2CC[C@]2(C)C[C@@H](N)CC12` (stereo partly shown) [4a], in data set [1] (setting [3]), the IC50 was > 1000 nM.
As for `COc1ccc2c(c1)CCC1C2CC[C@]2(C)C[C@@H](NCc3ccccc3O)CC12` (stereo partly shown) [4c], the values for the GI50 in the data set with K-562 and in the data set with HUVEC were 2600 nM and 3100 nM, respectively. Also, half-maximal cytotoxicity in data set [2] (CC50 at 72 h) was put at 12000 nM. The IC50 in data set [1] (setting [3]) was found to be 63 nM.
In the case of `COc1ccc2c(c1)CCC1C2CC[C@@]2(C)C1C[C@@H](NCc1ccccc1O)[C@H]2O` (stereo partly shown) [5c], the figures for the GI50 with K-562 and with HUVEC were 2000 nM and 2200 nM, respectively. For the same compound, the CC50 at 72 h in data set [2] was 11300 nM. Further, the half-inhibitory concentration (IC50) in data set [1] (setting [3]) came out at 160 nM.
For the compound `COc1ccc2c(c1)CCC1C2CC[C@@]2(C)C1C[C@@H](NCc1cc(Cl)ccc1O)[C@H]2O` (stereo partly shown) [5s], the IC50 in data set [1] (setting [3]) was determined as 99 nM.
As to `COc1ccc2c(c1)CCC1C2CC[C@@]2(C)C1C[C@H](NCc1ccccc1O)[C@H]2O` (stereo partly shown) [6c], the GI50 was found to be 2500 nM in the data set with K-562 and 4400 nM in the data set on HUVEC. Moreover, it took 11300 nM to reach half-maximal cytotoxicity in data set [2] (CC50 at 72 h). The IC50 in data set [1] (setting [3]) came to 676 nM.
`COc1ccc2c(c1)CCC1C2CC[C@@]2(C)C1C[C@H](NCc1cc(C(C)(C)C)cc(C(C)(C)C)c1O)[C@H]2O` (stereo partly shown) [6w]: the IC50 in data set [1] (setting [3]) came out at 1620 nM.
Turning to `COc1ccc2c(c1)CCC1C2CC[C@@]2(C)C1C[C@@H](NCc1ccccc1O)[C@@H]2O` (stereo partly shown) [7c], the GI50 in the data set on K-562 was 2000 nM; in the data set with HUVEC, 1200 nM. This compound also displayed a CC50 at 72 h in data set [2] of 10100 nM. Besides, the IC50 in data set [1] (setting [3]) worked out at 120 nM.
With `COc1ccc2c(c1)CCC1C2CC[C@@]2(C)C1C[C@@H](NCc1cc(Cl)ccc1O)[C@@H]2O` (stereo partly shown) [7s], the half-maximal inhibitory concentration (IC50) in data set [1] (setting [3]) turned out to be 55 nM.
On to `COc1ccc2c(c1)CCC1C2CC[C@@]2(C)C1C[C@H](/N=C/c1ccccc1O)[C@@H]2O` (stereo partly shown) [8b], for which the IC50 in data set [1] (setting [3]) is > 2500 nM.
On to `COc1ccc2c(c1)CCC1C2CC[C@@]2(C)C1C[C@H](NCc1ccccc1O)[C@@H]2O` (stereo partly shown) [8c], for which the GI50 in the data set with K-562 is 500 nM; with HUVEC, 2500 nM. The same compound yielded a CC50 at 72 h in data set [2] of 5900 nM. Further, the IC50 in data set [1] (setting [3]) is 224 nM.
The like results for `COc1ccc2c(c1)CCC1C2CC[C@]2(C)C1CC(NCc1ccccc1O)[C@@H]2O` (stereo partly shown) [9c] were, in that order, 8400 nM, 11200 nM, 48800 nM and 999 nM.
The corresponding values for `COc1ccc2c(c1)CCC1C2CC[C@]2(C)C1C[C@@H](NCc1ccccc1O)[C@@H]2O` (stereo partly shown) [10c] are 2500 nM, 2900 nM, 11500 nM and 84 nM.
The corresponding values for `COc1ccc2c(c1)CCC1C2CC[C@]2(C)C1C[C@H](NCc1ccccc1O)[C@@H]2O` (stereo partly shown) [11c] are 100 nM, 22000 nM, 6400 nM and 141 nM.
Consider `CC(C)CCC[C@@H](C)[C@H]1CCC2C3CCC4C[C@@H](O)[C@@H](O)[C@H](NCc5ccccc5O)[C@]4(C)C3CC[C@@]21C` (stereo partly shown) [12c], for which the 50% growth inhibitory concentration (GI50) in the data set on K-562 worked out at 16500 nM; with HUVEC it was 12400 nM. In data set [2], this compound displayed a CC50 at 72 h of 38000 nM. Also, the IC50 in data set [1] (setting [3]) was 4360 nM.
Consider `Oc1ccccc1CNC1CCCC1` [15c], for which the half-maximal inhibitory concentration (IC50) in data set [1] (setting [4]) is > 6000 nM.
The same measure, in the same setting: next, `Oc1ccccc1CNC1CCCCC1` [16c]: > 6000 nM.
As to `Oc1ccccc1CNC1CCCCCCC1` [17c], the half-inhibitory concentration (IC50) in data set [1] (setting [3]) was 2000 nM; in data set [1] (setting [4]) it was ~2000 nM.
For the compound `Oc1ccccc1CNC12CC3CC(CC(C3)C1)C2` [18c], the IC50 in data set [1] (setting [4]) is 4000 nM.
For the compound `Oc1ccccc1CNc1ccccc1` [19c], the IC50 in data set [1] (setting [4]) is > 15000 nM.
Turning to `Oc1ccccc1/C=N/c1ccc2ccc3cccc4ccc1c2c34` [20b], in data set [1] (setting [3]), the IC50 is > 15000 nM.
`Oc1cc2ccccc2cc1/C=N/c1ccc2ccc3cccc4ccc1c2c34` [20n]: the IC50 in data set [1] (setting [3]) was > 13000 nM.
Take `Oc1cc2ccccc2cc1CNc1ccc2ccc3cccc4ccc1c2c34` [20o]: the IC50 in data set [1] (setting [3]) was > 13000 nM.
In the case of `CCN(CC)Cc1cc(Nc2ccnc3cc(Cl)ccc23)ccc1O` [amodiaquine, reference compound], in the data set with haem, the “DV50 (dissociation voltage at 50%)” value is reported as 212 V and the “Bottom plateau (adduct remaining at 400 V)” value came out at 7%.
The corresponding values for `C=CC1=C(C)c2cc3[n-]c(cc4[n-]c(cc5nc(cc1n2)C(C)=C5C=C)c(C)c4CCC(=O)O)c(CCC(=O)O)c3C.O.[Fe+2]` [hematin, reference compound] are 329 V and ~ 28%.
